Measurements reported in patent US4677100A, “Cephalosporin derivatives” (Banyu Pharmaceutical Co., Ltd., priority 1984, dated 1987).
In brackets after ≈: the same amount, converted by molar mass.

How the values were obtained:
P. vulgaris OB1043 = test: MIC, agar plate dilution method; format: cell-based; details: Proteus vulgaris; P. vulgaris OB1043; 10^6 CFU/ml; Sensitivity Disk Agar; read-out: Minimum Inhibitory Concentration
Procedure: (§1) The minimum inhibitory concentrations (MIC: μg/ml) of the compounds of the present invention against various microorganisms were measured by an agar plate dilution method (inoculum size: 10^6 CFU/ml) by using Sensitivity Disk Agar (Nissui) in comparison with Cefotaxime and Ceftazidime as comparative compounds.

E. coli W3630/Rms212 = test: MIC, agar plate dilution method; format: cell-based; details: Escherichia coli, W3630/RMS212, read-out: Minimum Inhibitory Concentration
Procedure: as §1

E. coli CSH2 = test: MIC, agar plate dilution method; format: cell-based; details: Escherichia coli, 10^6 CFU/ml, Sensitivity Disk Agar, read-out: Minimum Inhibitory Concentration
Procedure: as §1

K. pneumoniae No. 42 = test: MIC, agar plate dilution method; format: cell-based; details: Klebsiella pneumoniae; K. pneumoniae No. 42; 10^6 CFU/ml; Sensitivity Disk Agar; read-out: Minimum Inhibitory Concentration
Procedure: as §1

A. calcoaceticus No. 14 = test: MIC, agar plate dilution method; format: cell-based; details: Acinetobacter calcoaceticus; for MIC: A. calcoaceticus No. 14, 10^6 CFU/ml, Sensitivity Disk Agar, read-out: Minimum Inhibitory Concentration
Procedure: as §1

P. mirabilis JY10 = test: MIC, agar plate dilution method; format: cell-based; details: Proteus mirabilis; P. mirabilis JY10; 10^6 CFU/ml; Sensitivity Disk Agar; read-out: Minimum Inhibitory Concentration
Procedure: as §1

E. coli C/Rms149 = test: MIC, agar plate dilution method; format: cell-based; details: Escherichia coli, read-out: Minimum Inhibitory Concentration
Procedure: as §1

E. coli NIHJJC-2 = test: MIC, agar plate dilution method; format: cell-based; details: Escherichia coli, NIHJJC2; E. coli NIHJJC-2; 10^6 CFU/ml; Sensitivity Disk Agar; read-out: Minimum Inhibitory Concentration
Procedure: as §1

E. cloaceae Nek 39 = test: MIC, agar plate dilution method; format: cell-based; details: E. cloaceae Nek 39; 10^6 CFU/ml; Sensitivity Disk Agar; read-out: Minimum Inhibitory Concentration
Procedure: as §1

E. coli CSH = test: MIC, agar plate dilution method; format: cell-based; details: Escherichia coli, read-out: Minimum Inhibitory Concentration
Procedure: as §1

C. freundii No. 7 = test: MIC, agar plate dilution method; format: cell-based; details: Citrobacter freundii; C. freundii No. 7; 10^6 CFU/ml; Sensitivity Disk Agar; read-out: Minimum Inhibitory Concentration
Procedure: as §1

S. marcescens No. 16-2 = test: MIC, agar plate dilution method; format: cell-based; details: Serratia marcescens, NO.162; S. marcescens No. 16-2; 10^6 CFU/ml; Sensitivity Disk Agar; read-out: Minimum Inhibitory Concentration
Procedure: as §1

E. coli ML1410/Rte16 = test: MIC, agar plate dilution method; format: cell-based; details: Escherichia coli, ML1410/RTE16, read-out: Minimum Inhibitory Concentration
Procedure: as §1

E. coli W3630/Rms213 = test: MIC, agar plate dilution method; format: cell-based; details: Escherichia coli, W3630/RMS213, read-out: Minimum Inhibitory Concentration
Procedure: as §1

P. vulgaris No. 33 = test: MIC, agar plate dilution method; format: cell-based; details: Proteus vulgaris; P. vulgaris No. 33; 10^6 CFU/ml; Sensitivity Disk Agar; read-out: Minimum Inhibitory Concentration
Procedure: as §1

S. aureus NIHJJC-1 = test: MIC, agar plate dilution method; format: cell-based; details: Staphylococcus aureus, NIHJJC1; S. aureus NIHJJC-1; 10^6 CFU/ml; Sensitivity Disk Agar; read-out: Minimum Inhibitory Concentration
Procedure: as §1

S. aureus JS-1 = test: MIC, agar plate dilution method; format: cell-based; details: Staphylococcus aureus, JS1; S. aureus JS-1; 10^6 CFU/ml; Sensitivity Disk Agar; read-out: Minimum Inhibitory Concentration
Procedure: as §1

P. maltophilia IID 1275 = test: MIC, agar plate dilution method; format: cell-based, Pseudomonas maltophilia; details: for MIC: Stenotrophomonas maltophilia, IID1275, P. maltophilia IID 1275, 10^6 CFU/ml, Sensitivity Disk Agar, read-out: Minimum Inhibitory Concentration; for antibacterial activity relative to the compound of Reference Example: Pseudomonas maltophilia resistant to all cephalosporins
Procedure: as §1

P. aeruginosa AK109 = test: MIC, agar plate dilution method; format: cell-based, Pseudomonas aeruginosa; details: for antibacterial activity relative to the compound of Reference Example: Pseudomonas aeruginosa AK109; for MIC: Pseudomonas aeruginosa, P. aeruginosa AK109, 10^6 CFU/ml, Sensitivity Disk Agar, read-out: Minimum Inhibitory Concentration
Procedure: as §1

P. aeruginosa AKR17 = test: MIC, agar plate dilution method; format: cell-based, Pseudomonas aeruginosa; details: for antibacterial activity relative to the compound of Reference Example: Pseudomonas aeruginosa AKR-17, resistant to all cephalosporins including Ceftazidime; for MIC: Pseudomonas aeruginosa, P. aeruginosa AKR17, 10^6 CFU/ml, Sensitivity Disk Agar, read-out: Minimum Inhibitory Concentration
Procedure: as §1

P. cepacia 23 = test: MIC, agar plate dilution method; format: cell-based, Pseudomonas cepacia; details: for MIC: Burkholderia cepacia, P. cepacia 23, 10^6 CFU/ml, Sensitivity Disk Agar, read-out: Minimum Inhibitory Concentration; for antibacterial activity relative to the compound of Reference Example: Pseudomonas cepacia 23
Procedure: as §1

[1] = test system: Gram-positive bacteria and Gram-negative bacteria; test: antibacterial activity, general statement; format: cell-based; details: sensitive and resistant bacteria
Procedure: as §1

Row | Compound | MIC (P. vulgaris OB1043) [µg/mL] | MIC (E. coli W3630/Rms212) [µg/mL] | MIC (E. coli CSH2) [µg/mL] | MIC (K. pneumoniae No. 42) [µg/mL] | antibacterial activity relative to the compound of Reference Example (A. calcoaceticus No. 14) | MIC (A. calcoaceticus No. 14) [µg/mL] | MIC (P. mirabilis JY10) [µg/mL] | MIC (E. coli C/Rms149) [µg/mL] | MIC (E. coli NIHJJC-2) [µg/mL] | MIC (E. cloaceae Nek 39) [µg/mL] | MIC (E. coli CSH) [µg/mL] | MIC (C. freundii No. 7) [µg/mL] | MIC (S. marcescens No. 16-2) [µg/mL] | MIC (E. coli ML1410/Rte16) [µg/mL] | MIC (E. coli W3630/Rms213) [µg/mL] | MIC (P. vulgaris No. 33) [µg/mL] | MIC (S. aureus NIHJJC-1) [µg/mL] | MIC (S. aureus JS-1) [µg/mL] | MIC (P. maltophilia IID 1275) [µg/mL] | antibacterial activity relative to the compound of Reference Example (P. aeruginosa AK109) | other results
1 | CCON=C(C(=O)NC1C(=O)N2C(C(=O)[O-])=C(C[N+]3(C)Cc4cc(O)c(O)cc4C3)CSC12)c1csc(N)n1 (centres unmarked) [Ex. 5-D, 7-[(Z)-2-(2-aminothiazol-4-yl)-2-ethoxyiminoacetamido]-3-(5,6-dihydroxy-2-methyl-2-isoindolinium) methyl-3-cephem-4-carboxylate] | 0.78 (≈ 1.36 µM) | ≤ 0.05 | 0.1 (≈ 0.174 µM) | 0.1 (≈ 0.174 µM) | at least 32 times | 0.2 (≈ 0.348 µM) | 0.2 (≈ 0.348 µM) | 0.1 (≈ 0.174 µM) | ≤ 0.05 | ≤ 0.05 | 0.2 (≈ 0.348 µM) | 6.25 (≈ 10.9 µM) | 3.12 (≈ 5.43 µM) | 0.1 (≈ 0.174 µM) | 0.2 (≈ 0.348 µM) | 0.2 (≈ 0.348 µM) | 3.12 (≈ 5.43 µM) | 12.5 (≈ 21.8 µM) | 25 (≈ 43.5 µM) | at least 16 times | MIC (P. aeruginosa AK109): 0.1 µg/mL (≈ 0.174 µM); antibacterial activity relative to the compound of Reference Example (P. aeruginosa AKR17): at least 32 times; MIC (P. aeruginosa AKR17): 0.39 µg/mL (≈ 0.679 µM); MIC (P. cepacia 23): 0.1 µg/mL (≈ 0.174 µM); antibacterial activity relative to the compound of Reference Example (P. cepacia 23): at least 32 times; antibacterial activity (in words) [1]: particularly strong antibacterial activities
2 | CC(C)(ON=C(C(=O)NC1C(=O)N2C(C(=O)[O-])=C(C[N+]3(C)Cc4cc(O)c(O)cc4C3)CSC12)c1csc(N)n1)C(=O)O (centres unmarked) [Ex. 7-E, 7-[(Z)-2-(2-aminothiazol-4-yl)-2-(1-carboxy-1-methylethoxyimino)acetamido]-3-(5,6-dihydroxy-methyl-2-methyl-2-isoindolinium)methyl-3-cephem-4-carboxylate] | 0.1 (≈ 0.158 µM) | ≤ 0.05 | ≤ 0.05 | ≤ 0.05 | at least 32 times | 0.1 (≈ 0.158 µM) | 0.1 (≈ 0.158 µM) | ≤ 0.05 | ≤ 0.05 | ≤ 0.05 | 0.1 (≈ 0.158 µM) | 0.78 (≈ 1.23 µM) | 0.39 (≈ 0.616 µM) | ≤ 0.05 | ≤ 0.05 | 0.2 (≈ 0.316 µM) | 25 (≈ 39.5 µM) | > 25 | 3.12 (≈ 4.93 µM) | at least 16 times | antibacterial activity relative to the compound of Reference Example (P. maltophilia IID 1275): at least twice as strong; MIC (P. aeruginosa AK109): ≤ 0.05 µg/mL; antibacterial activity relative to the compound of Reference Example (P. aeruginosa AKR17): at least 32 times; MIC (P. aeruginosa AKR17): ≤ 0.05 µg/mL; MIC (P. cepacia 23): ≤ 0.05 µg/mL; antibacterial activity relative to the compound of Reference Example (P. cepacia 23): at least 32 times; antibacterial activity (in words) [1]: particularly strong antibacterial activities
3 | C[N+]1(CC2=C(C(=O)[O-])N3C(=O)C(NC(=O)C(=NOCC(=O)O)c4csc(N)n4)C3SC2)Cc2cc(O)c(O)cc2C1 (centres unmarked) [Ex. 8-E, 7-[(Z)-2-(2-aminothiazol-4-yl)-2-carboxymethoxyimino)acetamido]-3-(5,6-dihydroxy-2-methyl-2-isoindolinium)methyl-3-cephem-4-carboxylate] | 0.2 (≈ 0.331 µM) | ≤ 0.05 | ≤ 0.05 | ≤ 0.05 | at least 32 times | ≤ 0.05 | 0.2 (≈ 0.331 µM) | ≤ 0.05 | ≤ 0.05 | ≤ 0.05 | 0.1 (≈ 0.165 µM) | 0.78 (≈ 1.29 µM) | 0.78 (≈ 1.29 µM) | ≤ 0.05 | ≤ 0.05 | 0.1 (≈ 0.165 µM) | 12.5 (≈ 20.7 µM) | > 25 | 6.25 (≈ 10.3 µM) | at least 16 times | antibacterial activity relative to the compound of Reference Example (P. maltophilia IID 1275): at least twice as strong; MIC (P. aeruginosa AK109): ≤ 0.05 µg/mL; antibacterial activity relative to the compound of Reference Example (P. aeruginosa AKR17): at least 32 times; MIC (P. aeruginosa AKR17): 0.2 µg/mL (≈ 0.331 µM); MIC (P. cepacia 23): ≤ 0.05 µg/mL; antibacterial activity relative to the compound of Reference Example (P. cepacia 23): at least 32 times; antibacterial activity (in words) [1]: particularly strong antibacterial activities
4 | CC(C)ON=C(C(=O)NC1C(=O)N2C(C(=O)[O-])=C(C[N+]3(C)Cc4cc(O)c(O)cc4C3)CSC12)c1csc(N)n1 (centres unmarked) [Ex. 9-C, 7-[(Z)-2-(2-aminothiazol-4-yl)-2-isopropoxyiminoacetamido]-3-(5,6-dihydroxy-2-methyl-2-isoindolinium) methyl-3-cephem-4-carboxylate] | 0.2 (≈ 0.34 µM) | ≤ 0.05 | ≤ 0.05 | 0.1 (≈ 0.17 µM) | at least 32 times | 0.2 (≈ 0.34 µM) | 0.1 (≈ 0.17 µM) | ≤ 0.05 | ≤ 0.05 | ≤ 0.05 | 0.1 (≈ 0.17 µM) | 3.12 (≈ 5.3 µM) | 0.78 (≈ 1.33 µM) | ≤ 0.05 | ≤ 0.05 | 0.1 (≈ 0.17 µM) | 6.25 (≈ 10.6 µM) | 12.5 (≈ 21.2 µM) | 3.12 (≈ 5.3 µM) | at least 16 times | antibacterial activity relative to the compound of Reference Example (P. maltophilia IID 1275): at least twice as strong; MIC (P. aeruginosa AK109): ≤ 0.05 µg/mL; antibacterial activity relative to the compound of Reference Example (P. aeruginosa AKR17): at least 32 times; MIC (P. aeruginosa AKR17): 0.39 µg/mL (≈ 0.663 µM); MIC (P. cepacia 23): ≤ 0.05 µg/mL; antibacterial activity relative to the compound of Reference Example (P. cepacia 23): at least 32 times; antibacterial activity (in words) [1]: particularly strong antibacterial activities
